Source: US6444617B1, “Fused-heterocycle dicarboxylic acid diamide derivatives or salts thereof, herbicide and usage thereof” (Nihon Nohyaku Co., Ltd., priority 1998, dated 2002)

Assays:
Assay type in all cases: in vivo
[1] = tested on: monochoria (Monochoria vaginalis Presl); experiment: Test Example 2: herbicidal effect on paddy field weeds after emergence; settings: Dosage 5 kg/ha; one-leaved stage; 21 days after treatment
Procedure, shortened: (§1)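 Weeds in flooded paddy-soil pots were grown to the one-leaved stage, then the soil was treated with the compound solution at a set dosage.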

[2] = tested on: barnyard grass (Echinochloa crus-galli Beauv.); experiment: as above; settings: Dosage 5 kg/ha; one-leaved stage; 21 days after treatment
Procedure, shortened: as §1

[3] = tested on: bulrush (Scirpus juncoides Roxb.); experiment: as above; settings: Dosage 5 kg/ha; one-leaved stage; 21 days after treatment
Procedure, shortened: as §1

soybean plant (So) = experiment: Test Example 3: phytotoxicity to upland crop plants, treatment before emergence; settings: dosage 5 kg/ha
Procedure, shortened: (§2)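 Pre-emergence spray of a liquid preparation at a prescribed compound concentration. Soybean and wheat injury was scored against a phytotoxicity criterion 14 days after treatment, alongside weed control.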

wheat (Wh) = experiment: as above; settings: dosage 5 kg/ha
Procedure, shortened: as §2

[4] = tested on: cocklebur (Xanthium strumarium L.), Xs; experiment: Test Example 4: herbicidal effect on upland weeds after emergence; settings: dosage 5 kg/ha; sprayed after emergence; judged 14 days after treatment
Procedure, shortened: (§3)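 Weeds and soybean grown in soil-filled vats to set leaf stages, then sprayed post-emergence with the compound at a prescribed concentration. Weed-killing rate and crop phytotoxicity judged 14 days after treatment.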

[5] = tested on: bird's eye speedwell (Veronica persica Poir.), Vp; experiment: as above; settings: dosage 5 kg/ha; sprayed after emergence; judged 14 days after treatment
Procedure, shortened: as §3

[6] = tested on: barnyard grass (Echinochloa crus-galli Beauv.), Ec; experiment: as above; settings: dosage 5 kg/ha; sprayed after emergence; judged 14 days after treatment
Procedure, shortened: as §3

[7] = tested on: forxtail grass (Alopecurus aequalis var. amurensis Ohwi), Am; experiment: as above; settings: dosage 5 kg/ha; sprayed after emergence; judged 14 days after treatment
Procedure, shortened: as §3

[8] = tested on: cleavers (Galium aparine L.), Ga; experiment: as above; settings: dosage 5 kg/ha; sprayed after emergence; judged 14 days after treatment
Procedure, shortened: as §3

[9] = tested on: velvetleaf (Abutilon theophtasti L.), At; experiment: as above; settings: dosage 5 kg/ha; sprayed after emergence; judged 14 days after treatment
Procedure, shortened: as §3

[10] = tested on: barnyard grass (Echinochloa crus-galli Beauv.); experiment: Test Example 1: herbicidal effect on paddy field weeds before emergence; settings: Dosage 5 kg/ha
Procedure, shortened: (§4)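 Seeds of both weeds, still ungerminated, in soil pots held under paddy conditions received a set dose of test solution as soil treatment. After twenty-one days, control relative to untreated pots was calculated and rated on a scoring scale.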

[11] = tested on: bulrush (Scirpus juncoides Roxb.); experiment: as above; settings: Dosage 5 kg/ha
Procedure, shortened: as §4

wheat = experiment: Test Example 4: phytotoxicity to upland crop plants, treatment after emergence; settings: dosage 5 kg/ha, sprayed after emergence, judged 14 days after treatment
Procedure, shortened: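 Scores of weed-killing rate, with crop phytotoxicity, come from inspection 14 days after plants in soil vats, grown to specified leaf stages, are sprayed with a formulation holding the compound at a prescribed concentration.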

soybean plant = experiment: as above; settings: dosage 5 kg/ha, sprayed after emergence, judged 14 days after treatment
Procedure, shortened: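 Seeds sown in soil and covered. Plants raised to specified leaf stages. Agent with test compound at a prescribed concentration sprayed. Herbicidal effect and crop damage scored after 14 days as weed-killing rate.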

[12] = tested on: cocklebur (Xanthium strumarium L.), Xs; experiment: Test Example 3: herbicidal effect on upland weeds before emergence; settings: dosage 5 kg/ha
Procedure, shortened: (§5)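 Steps: sow upland weed seeds; spray liquid formulation of active ingredient at prescribed concentration prior to emergence; after 14 days, calculate weed-killing rate; judge herbicidal effect.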

[13] = tested on: bird's eye speedwell (Veronica persica Poir.), Vp; experiment: as above; settings: dosage 5 kg/ha
Procedure, shortened: as §5

[14] = tested on: barnyard grass (Echinochloa crus-galli Beauv.), Ec; experiment: as above; settings: dosage 5 kg/ha
Procedure, shortened: as §5

[15] = tested on: forxtail grass (Alopecurus aequalis var. amurensis Ohwi), Am; experiment: as above; settings: foxtail grass, dosage 5 kg/ha
Procedure, shortened: as §5

[16] = tested on: cleavers (Galium aparine L.), Ga; experiment: as above; settings: dosage 5 kg/ha
Procedure, shortened: as §5

[17] = tested on: velvetleaf (Abutilon theophtasti L.), At; experiment: as above; settings: dosage 5 kg/ha
Procedure, shortened: as §5

SMILES | Post-emergence treatment Monochoria (herbicidal effect) [1] | Post-emergence treatment Barnyard grass (herbicidal effect) [2] | Post-emergence treatment Bulrush (herbicidal effect) [3] | Phytotoxicity So (soybean plant (So)) | Phytotoxicity Wh (wheat (Wh)) | Herbicidal effect Xs [4] | Herbicidal effect Vp [5] | Herbicidal effect Ec [6] | Herbicidal effect Am [7] | Herbicidal effect Ga [8] | Herbicidal effect At [9] | Pre-emergence treatment Barnyard grass (herbicidal effect) [10] | Pre-emergence treatment Bulrush (herbicidal effect) [11] | Phytotoxicity Wh (wheat) | Phytotoxicity So (soybean plant) | Herbicidal effect Xs [12] | Herbicidal effect Vp [13] | Herbicidal effect Ec [14] | Herbicidal effect Am [15] | Herbicidal effect Ga [16] | other results
CCCNC(=O)c1cc2c(nc1C(=O)Nc1c(CC)ccc(Cl)c1CC)S(=O)(=O)CC2 [Compound No. 1040, 6-(3-Chloro-2,6-diethylphenyl)-aminocarbonyl-2,3-dihydro-1,1-dioxo-thieno[2,3-b]pyridine-5-carboxylic Acid n-Propylamide] | 5 (Weed-killing rate is 100%.) | 5 (Weed-killing rate is 100%.) | 5 (Weed-killing rate is 100%.) | 4 (Crop-killing rate is 90-99%.) | 5 (Crop-killing rate is 100%.) | 5 (Weed-killing rate is 100%.) | 5 (Weed-killing rate is 100%.) | 5 (Weed-killing rate is 100%.) | 5 (Weed-killing rate is 100%.) | 5 (Weed-killing rate is 100%.) | 5 (Weed-killing rate is 100%.) | 5 (Weed-killing rate is 100%.) | 5 (Weed-killing rate is 100%.) | 5 (Crop-killing rate is 100%.) | 4 (Crop-killing rate is 90-99%.) | 5 (Weed-killing rate is 100%.) | 5 (Weed-killing rate is 100%.) | 5 (Weed-killing rate is 100%.) | 5 (Weed-killing rate is 100%.) | 5 (Weed-killing rate is 100%.) | Herbicidal effect At [17]: 5 (Weed-killing rate is 100%.)
CCNC(=O)c1nc2ccc(O)cc2cc1C(=O)Nc1c(CC)ccc(Cl)c1CC [compound 275] | 5 (Weed-killing rate is 100%.) | 5 (Weed-killing rate is 100%.) | 4 (Weed-killing rate is 90-99%.) | 0 (Crop-killing rate is 0-20% (No Phytotoxicity).) | 1 (Crop-killing rate is 1-39%.) | 3 (Weed-killing rate is 70-89%.) | 4 (Weed-killing rate is 90-99%.) | 4 (Weed-killing rate is 90-99%.) | 3 (Weed-killing rate is 70-89%.) | 3 (Weed-killing rate is 70-89%.) | 4 (Weed-killing rate is 90-99%.) | 5 (Weed-killing rate is 100%.) | 5 (Weed-killing rate is 100%.) | 2 (Crop-killing rate is 40-69%.) | 1 (Crop-killing rate is 1-39%.) | 3 (Weed-killing rate is 70-89%.) | 4 (Weed-killing rate is 90-99%.) | 4 (Weed-killing rate is 90-99%.) | 3 (Weed-killing rate is 70-89%.) | 3 (Weed-killing rate is 70-89%.) | Herbicidal effect At [17]: 4 (Weed-killing rate is 90-99%.)
CCCNC(=O)c1nc2ccc(O)cc2cc1C(=O)Nc1c(CC)ccc(Cl)c1CC [compound 276] | 5 (Weed-killing rate is 100%.) | 3 (Weed-killing rate is 70-89%.) | 4 (Weed-killing rate is 90-99%.) | 0 (Crop-killing rate is 0-20% (No Phytotoxicity).) | 2 (Crop-killing rate is 40-69%.) | 4 (Weed-killing rate is 90-99%.) | 5 (Weed-killing rate is 100%.) | 5 (Weed-killing rate is 100%.) | 4 (Weed-killing rate is 90-99%.) | 4 (Weed-killing rate is 90-99%.) | 5 (Weed-killing rate is 100%.) | 5 (Weed-killing rate is 100%.) | 5 (Weed-killing rate is 100%.) | 3 (Crop-killing rate is 70-89%.) | 2 (Crop-killing rate is 40-69%.) | 4 (Weed-killing rate is 90-99%.) | 5 (Weed-killing rate is 100%.) | 5 (Weed-killing rate is 100%.) | 4 (Weed-killing rate is 90-99%.) | 4 (Weed-killing rate is 90-99%.) | Herbicidal effect At [17]: 5 (Weed-killing rate is 100%.)
CCNC(=O)c1nc2ccc(OC)cc2cc1C(=O)Nc1c(CC)ccc(Cl)c1CC [compound 289] | 5 (Weed-killing rate is 100%.) | 5 (Weed-killing rate is 100%.) | 4 (Weed-killing rate is 90-99%.) | 1 (Crop-killing rate is 1-39%.) | 2 (Crop-killing rate is 40-69%.) | 3 (Weed-killing rate is 70-89%.) | 5 (Weed-killing rate is 100%.) | 5 (Weed-killing rate is 100%.) | 4 (Weed-killing rate is 90-99%.) | 4 (Weed-killing rate is 90-99%.) | 5 (Weed-killing rate is 100%.) | 5 (Weed-killing rate is 100%.) | 5 (Weed-killing rate is 100%.) | 2 (Crop-killing rate is 40-69%.) | 1 (Crop-killing rate is 1-39%.) | 3 (Weed-killing rate is 70-89%.) | 5 (Weed-killing rate is 100%.) | 5 (Weed-killing rate is 100%.) | 4 (Weed-killing rate is 90-99%.) | 4 (Weed-killing rate is 90-99%.) | Herbicidal effect At [17]: 5 (Weed-killing rate is 100%.)
